Structures are written as SMILES. Values after ≈ are worked out from the molar mass of the structure shown.

Holding throughout (type): cell-based
One data set is described as follows: in vitro. The conditions noted are these: human, cem cells, CC50 (50% cytostatic concentration), Table 2B; CEM cell proliferation; averages of 2 to 3 independent experiments. A digest of the protocol: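 In CEM cells, the cytostatic value is the compound concentration giving 50% inhibition of cell proliferation. Parallel work used HIV-1(IIIB) and culture-selected resistant strains Lys-138, 181-Cys, 188-His and 188-Leu.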

Another data set concerns HIV-1/103-Asn. Description: Inhibition of HIV-1 induced syncytium formation in CEM cells, RT mutant 103-Asn. The conditions noted are these: Human immunodeficiency virus 1, CCRF-CEM, 96 h, Table 2B, day 4, averages of 2 to 3 independent experiments, read-out: Antiviral Activity of Comparative Compounds EC50, 103-Asn. The source says:
(§1) CEM cells were obtained from the American Tissue Cell Culture Collection (Rockville, Md.). HIV-1(IIIB) was originally obtained from the culture supernatant of persistently HIV-1-infected H9 cells and was provided by R. C. Gallo and M. Popovic (National Cancer Institute, National Institutes of Health, Bethesda, Md.). […] 67: 5353-5359 (1993); HIV-1/Lys-138 ("Lys-138") was selected for resistance against TSAO-m^3T as described in Balzarini et al, Virology 192: 246-253 (1993) and Balzarini et al, Proc. Nat. Acad. Sci. USA 90: 6952-6956 (1993); HIV-1/181-Cys ("181-Cys") was selected for resistance against pyridinone L-697,661 as described in Balzarini et al, Virology 192: 246-253 (1993); and HIV-1/188-His ("188-His") was selected for resistance against HEPT as described in Balzarini et al, Mol. Pharmocol. 44: 694-701 (1993). 188-His was then further converted to HIV-1/188-Leu "188-Leu") upon further passage in cell culture in the absence of the HEPT.
(§2) CEM cells were suspended at ≈300,000 cells per ml of culture medium and infected with approximately 100 CCID50 (CCID50 being the 50% cell culture infective dose) of HIV-1(IIIB) or one of the HIV-1 RT mutant strains described above. Then 100 μl of the infected cell suspensions was added to 200 μl microtiter plate wells containing 100 μl of appropriate serial (5-fold) dilutions of the test compounds. The inhibitory effect of the test compounds on HIV-1 induced syncytium formation in CEM cells was examined microscopically on day 4 post infection.

Another data set relates to HIV-1/181-Cys. The experiment in a line: Inhibition of HIV-1 induced syncytium formation in CEM cells, RT mutant 181-Cys. The conditions noted are these: Human immunodeficiency virus 1, CCRF-CEM, 96 h, Table 2B, day 4, averages of 2 to 3 independent experiments, read-out: Antiviral Activity of Comparative Compounds EC50, 181-Cys. A digest of the protocol: (§3)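 CEM cells (≈300,000/ml) infected with about 100 CCID50 of HIV-1(IIIB) or RT mutant strains, then added to 5-fold serial dilutions of test compounds. Inhibition of virus-induced syncytium formation scored microscopically on day 4 post infection.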

Another data set concerns HIV-1(IIIB). Description: Inhibition of HIV-1 induced syncytium formation in CEM cells, wild type. The following applies: Human immunodeficiency virus 1, IIIB, CCRF-CEM, 96 h, Table 2B, WT = HIV-1(IIIB), day 4, averages of 2 to 3 independent experiments, read-out: Antiviral Activity of Comparative Compounds EC50, WT. A digest of the protocol: as §3
In another data set the test system is HIV-1/Lys-138. The experiment in a line: Inhibition of HIV-1 induced syncytium formation in CEM cells, RT mutant 138-Lys. The conditions noted are these: Human immunodeficiency virus 1, CCRF-CEM, 96 h, Table 2B, day 4, averages of 2 to 3 independent experiments, read-out: Antiviral Activity of Comparative Compounds EC50, 138-Lys. A digest of the protocol: as §3

The test system of another data set is HIV-1/106-Ala. The experiment in a line: Inhibition of HIV-1 induced syncytium formation in CEM cells, RT mutant 106-Ala. The conditions noted are these: Human immunodeficiency virus 1, CCRF-CEM, 96 h, Table 2B, day 4, averages of 2 to 3 independent experiments, read-out: Antiviral Activity of Comparative Compounds EC50, 106-Ala. The gist of the method:
as §3

The next data set concerns HIV-1/100-Ile. Description: Inhibition of HIV-1 induced syncytium formation in CEM cells, RT mutant 100-Ile. The following applies: Human immunodeficiency virus 1, CCRF-CEM, 96 h, Table 2B, day 4, averages of 2 to 3 independent experiments, read-out: Antiviral Activity of Comparative Compounds EC50, 100-Ile. A digest of the protocol: as §3
Another data set concerns HIV-1/188-Leu. The experiment in a line: Inhibition of HIV-1 induced syncytium formation in CEM cells, RT mutant 188-Leu. The conditions noted are these: Human immunodeficiency virus 1, CCRF-CEM, 96 h, Table 2B, day 4, averages of 2 to 3 independent experiments, read-out: Antiviral Activity of Comparative Compounds EC50, 188-Leu.
Source text: as §1, §2

Usually CC50 stands for the concentration that lowers cell viability or growth by half. Low values mean greater toxicity to the cells, high ones lower toxicity to the cells. As a reminder, the EC50 is the concentration that produces a half-maximal response. In turn, `Cc1sccc1C(=O)Nc1ccc(Cl)c(C(=O)OC(C(C)C)C(C)C)c1` [Compound 32] came in with a CC50 in the data set “in vitro” of 4.1 µg/mL (≈ 10.4 µM). The 50% effective concentration (EC50) was not below 2 µg/mL with HIV-1/103-Asn; 0.95 µg/mL (≈ 2.41 µM) in the data set with HIV-1/181-Cys; 0.16 µg/mL (≈ 0.406 µM) with HIV-1(IIIB); not below 2 µg/mL in the data set on HIV-1/Lys-138; not below 2 µg/mL in the data set with HIV-1/106-Ala; not below 2 µg/mL in the data set on HIV-1/100-Ile. For the same compound, in the data set on HIV-1/188-Leu, the EC50 was more than 2 µg/mL.
In the data set “in vitro”, `CON=Cc1cc(NC(=O)c2ccoc2C)ccc1OC` [Compound 47] yielded a 50% cytotoxic concentration (CC50) of more than 100 µg/mL. For the same compound, the EC50 was not below 10 µg/mL in the data set with HIV-1/103-Asn; not below 10 µg/mL with HIV-1/181-Cys; 0.23 µg/mL (≈ 0.798 µM) in the data set on HIV-1(IIIB); not below 10 µg/mL in the data set with HIV-1/Lys-138; not below 10 µg/mL with HIV-1/106-Ala; not below 10 µg/mL with HIV-1/100-Ile. Further, in the data set on HIV-1/188-Leu, the 50% effective concentration (EC50) is not below 10 µg/mL.
Turning to `CC1=C(C(=O)Nc2ccc(Cl)c(OCCC(C)C)c2)SCCO1` [Compound 41], the half-maximal cytotoxic concentration (CC50) in “in vitro” is more than 100 µg/mL. In addition, the 50% effective concentration (EC50) with HIV-1/103-Asn is not below 2 µg/mL; in the data set with HIV-1/181-Cys, not below 2 µg/mL; in the data set on HIV-1(IIIB) it was 0.28 µg/mL (≈ 0.787 µM); in the data set on HIV-1/Lys-138, not below 2 µg/mL; with HIV-1/106-Ala, not below 2 µg/mL; in the data set on HIV-1/100-Ile, not below 2 µg/mL. Also, the half-maximal effective concentration (EC50) in the data set with HIV-1/188-Leu is more than 2 µg/mL.
`Cc1c(C(=S)Nc2ccc(Cl)c(C=NOC(C)(C)C)c2)ccn1C` [Compound 10]: the CC50 in “in vitro” came to 6.5 µg/mL (≈ 17.9 µM). In addition, the EC50 was determined as 1.27 µg/mL (≈ 3.49 µM) in the data set with HIV-1/103-Asn; 0.033 µg/mL (≈ 0.0907 µM) with HIV-1/181-Cys; 0.02 µg/mL (≈ 0.055 µM) with HIV-1(IIIB); 0.09 µg/mL (≈ 0.247 µM) in the data set on HIV-1/Lys-138; 0.23 µg/mL (≈ 0.632 µM) with HIV-1/106-Ala; 0.65 µg/mL (≈ 1.79 µM) in the data set with HIV-1/100-Ile. Moreover, the half-maximal effective concentration (EC50) in the data set on HIV-1/188-Leu was more than 2 µg/mL.
Take `Cc1occc1C(=S)Nc1ccc(Cl)c(OCC(C)(C)C)c1` [Compound 39]: in “in vitro”, the CC50 worked out at 4.1 µg/mL (≈ 12.1 µM). For the same compound, the half-maximal effective concentration (EC50) is 0.7 µg/mL (≈ 2.07 µM) with HIV-1/103-Asn; not below 2 µg/mL with HIV-1/181-Cys; 0.15 µg/mL (≈ 0.444 µM) in the data set with HIV-1(IIIB); 0.5 µg/mL (≈ 1.48 µM) in the data set with HIV-1/Lys-138; more than 2 µg/mL with HIV-1/106-Ala; 1.4 µg/mL (≈ 4.14 µM) in the data set on HIV-1/100-Ile. For the same compound, the half-maximal effective concentration (EC50) in the data set on HIV-1/188-Leu is more than 2 µg/mL.
`CC=CCOc1cc(NC(=O)c2ccoc2C)ccc1Cl` [Compound 40] yielded a CC50 in the data set “in vitro” of 5.8 µg/mL (≈ 19 µM). In addition, the EC50 is not below 2 µg/mL with HIV-1/103-Asn; more than 2 µg/mL with HIV-1/181-Cys; 0.24 µg/mL (≈ 0.785 µM) in the data set on HIV-1(IIIB); 1.2 µg/mL (≈ 3.92 µM) with HIV-1/Lys-138; more than 2 µg/mL in the data set on HIV-1/106-Ala; 1.4 µg/mL (≈ 4.58 µM) with HIV-1/100-Ile. For the same compound, in the data set on HIV-1/188-Leu, the EC50 is more than 2 µg/mL.
In “in vitro”, `Cc1sccc1C(=O)Nc1ccc(Cl)c(C(=O)OC(C)C)c1` [Compound 31] gave a CC50 of 5.5 µg/mL (≈ 16.3 µM). Further, the EC50 with HIV-1/103-Asn is not below 2 µg/mL; in the data set on HIV-1/181-Cys, 0.73 µg/mL (≈ 2.16 µM); with HIV-1(IIIB) it was 0.09 µg/mL (≈ 0.266 µM); in the data set with HIV-1/Lys-138, 0.93 µg/mL (≈ 2.75 µM); with HIV-1/106-Ala it was 0.6 µg/mL (≈ 1.78 µM); in the data set on HIV-1/100-Ile it was not below 2 µg/mL. For the same compound, in the data set on HIV-1/188-Leu, the EC50 is more than 2 µg/mL.
`CC(C)=CCOc1cc(NC(=O)c2ccsc2C)ccc1Cl` [Compound 27] gave a CC50 in the data set “in vitro” of 6 µg/mL (≈ 17.9 µM). Moreover, the EC50 in the data set with HIV-1/103-Asn was determined as 0.5 µg/mL (≈ 1.49 µM); with HIV-1/181-Cys it was 0.46 µg/mL (≈ 1.37 µM); with HIV-1(IIIB), 0.01 µg/mL (≈ 0.0298 µM); with HIV-1/Lys-138, 0.15 µg/mL (≈ 0.447 µM); in the data set with HIV-1/106-Ala, 0.11 µg/mL (≈ 0.328 µM); in the data set with HIV-1/100-Ile it was 0.36 µg/mL (≈ 1.07 µM). The EC50 in the data set on HIV-1/188-Leu was more than 2 µg/mL.
As for `CC=CCSc1cc(NC(=O)c2ccoc2C)ccc1Cl` [Compound 35], in the data set “in vitro”, the 50% cytotoxic concentration (CC50) is 5.9 µg/mL (≈ 18.3 µM). Moreover, the EC50 with HIV-1/103-Asn is 0.55 µg/mL (≈ 1.71 µM); in the data set with HIV-1/181-Cys, 1.6 µg/mL (≈ 4.97 µM); with HIV-1(IIIB), 0.16 µg/mL (≈ 0.497 µM); with HIV-1/Lys-138, 0.7 µg/mL (≈ 2.18 µM); with HIV-1/106-Ala it was 0.8 µg/mL (≈ 2.49 µM); in the data set on HIV-1/100-Ile, 1.5 µg/mL (≈ 4.66 µM). Further, the EC50 with HIV-1/188-Leu was more than 2 µg/mL.

(Values after patent US5696151A, “Compounds useful for the inhibition of the replication of HIV-1 and HIV-1 mutants” (priority 1995, dated 1997).)
